Measured values as given in US20250171417A1, “HETEROCYCLIC DERIVATIVE, AND COMPOSITION AND PHARMACEUTICAL USE THEREOF” (Xizang Haisco Pharmaceutical Co., Ltd., priority 2021, published 2025).
Read-outs that look alike come from different tables or passages of the source.

Assays:
[1] = system: Prostate cancer cells 22RV1; assay: Experiment on inhibiting 22RV1 cell proliferation (CellTiter-Glo, 7 days); format: cell-based; conditions: Homo sapiens, 168 h, 22RV1 cells, 7 days incubation, read-out: IC50 values for inhibition of 22RVI cells
Outline: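 22RV1 cells at 2000/well in 1% charcoal-stripped-FBS phenol red-free medium, treated next day with compound for 7 days at 37 °C, 5% CO2. Viability by CellTiter-Glo luminescence; inhibition relative to DMSO vehicle, IC50 from dose-response fit.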

[2] = Pharmacokinetic test in rats; format: in vivo; conditions: rat, plasma, po, male SD rats; for bioavailability: i.g. 5 mg/kg vs intravenous 2 mg/kg; for AUC(0-t): i.g. 5 mg/kg
Experimental: Test objective: In this experiment, a single dose of each test compound was administered to SD rats intravenously and intragastrically, and the concentrations of the test compounds in plasma of rats were measured to evaluate the pharmacokinetic characteristics of the test compounds in rats.
Experimental animals: male SD rats, 200-250 g, 6-8 weeks old, 6 rats/compound, purchased from Chengdu Ddossy Experimental Animals Co., Ltd.
Experimental method: on the day of the test, 6 SD rats were randomly grouped according to their body weight; the animals were fasted with water available for 12 to 14 hours one day before the administration of a test compound, and were fed 4 hours after the administration.
Sampling: Before and after the administration, 0.1 mL of blood samples were drawn from the orbits of the animals under isoflurane anesthesia, and placed in an EDTAK2 centrifuge tube. Centrifugation was carried out at 5000 rpm at 4° C. for 10 min, and the plasma was collected.
Time points for plasma collection in IV&PO group: 0, 5 min, 15 min, 30 min, 1 h, 2 h, 4 h, 6 h, 8 h, and 24 h.
Before analysis and detection, all samples were stored at −60° C. The samples were analyzed quantitatively by LC-MS/MS.

[3] = cells with nM printed beside the value
[4] = cells without a unit of their own (μM)

SMILES	IC50 [1, 3] [nM]	bioavailability [2] [%]	AUC(0-t) [2] [ng·h/mL]	IC50 [1, 4] [nM]
CC(C)(C(=O)Nc1ccc(C(F)(F)F)cc1-n1cccc1)n1cc(C#CC2CN(c3ccc4c(c3)C(=O)N(C3CCC(=O)NC3=O)C4=O)C2)cn1 (stereo not drawn) [Compound 133, N-(2-(1H-pyrrol-1-yl)-4-(trifluoromethyl)phenyl)-2-(4-((1-(2-(2,6-dioxopiperidin-3-yl)-1,3-dioxoisoindolin-5-yl)azetidin-3-yl)ethynyl)-1H-pyrazol-1-yl)-2-methylpropanamide]	< 100	70.3 ± 7.9	8290 ± 935	
CC(C)(C(=O)Nc1ccc(C#N)c(C(F)(F)F)c1)n1cc(C#CC2CN(c3ccc4c(c3)CN(C3CCC(=O)NC3=O)C4=O)C2)cn1 (stereo not drawn) [Compound 6]		47.3 ± 16	8960 ± 2940	< 1000
CC(C)(C(=O)Nc1ccc(C#N)c2c1CCC2)n1cc(C#CC2CN(c3ccc4c(c3)C(=O)N(C3CCC(=O)NC3=O)C4=O)C2)cn1 (stereo not drawn) [Compound 141, N-(7-cyano-2,3-dihydro-1H-inden-4-yl)-2-(4-((1-(2-(2,6-dioxopiperidin-3-yl)-1,3-dioxoisoindolin-5-yl)azetidin-3-yl)ethynyl)-1H-pyrazol-1-yl)-2-methylpropanamide]	< 50	76.1 ± 716	15700 ± 3200	
CC(C)(C(=O)Nc1ccc(C(F)(F)F)cc1F)n1cc(C#CC2CN(c3ccc4c(c3)C(=O)N(C3CCC(=O)NC3=O)C4=O)C2)cn1 (stereo not drawn) [Compound 31, N-(2-fluoro-4-(trifluoromethyl)phenyl)-2-(4-((1-(2-(2,6-dioxopiperidin-3-yl)-1,3-dioxoisoindolin-5-yl)azetidin-3-yl)ethynyl)-1H-pyrazol-1-yl)-2-methylpropanamide]	< 100		39700 ± 1890	
CC(C)(C(=O)Nc1ccc(C(F)(F)F)cc1C#N)n1cc(C#CC2CN(c3ccc4c(c3)C(=O)N(C3CCC(=O)NC3=O)C4=O)C2)cn1 (stereo not drawn) [Compound 42, N-(2-cyano-4-(trifluoromethyl)phenyl)-2-(4-((1-(2-(2,6-dioxopiperidin-3-yl)-1,3-dioxoisoindolin-5-yl)azetidin-3-yl)ethynyl)-1H-pyrazol-1-yl)-2-methylpropanamide]				< 1000
N#Cc1ccc(NC(=O)C2(n3cc(C#CC4CN(c5ccc6c(c5)C(=O)N(C5CCC(=O)NC5=O)C6=O)C4)cn3)CCC2)c(C2CC2)c1 (stereo not drawn) [Compound 45, N-(4-cyano-2-cyclopropylphenyl)-1-(4-((1-(2-(2,6-dioxopiperidin-3-yl)-1,3-dioxoisoindolin-5-yl)azetidin-3-yl)ethynyl)-1H-pyrazol-1-yl)cyclobutane-1-carboxamide]	< 50			
CC(C)(C(=O)Nc1ccc([N+](=O)[O-])c(Cl)c1)n1cc(C#CC2CN(c3ccc4c(c3)C(=O)N(C3CCC(=O)NC3=O)C4=O)C2)cn1 (stereo not drawn) [Compound 25, N-(3-chloro-4-nitrophenyl)-2-(4-((1-(2-(2,6-dioxopiperidin-3-yl)-1,3-dioxoisoindolin-5-yl)azetidin-3-yl)ethynyl)-1H-pyrazol-1-yl)-2-methylpropanamide]				< 1000
N#Cc1ccc(NC(=O)C2(n3cc(C#CC4CN(c5ccc6c(c5)C(=O)N(C5CCC(=O)NC5=O)C6=O)C4)cn3)CCCC2)cc1C(F)(F)F (stereo not drawn) [Compound 48, N-(4-cyano-3-(trifluoromethyl)phenyl)-1-(4-((1-(2-(2,6-dioxopiperidin-3-yl)-1,3-dioxoisoindolin-5-yl)azetidin-3-yl)ethynyl)-1H-pyrazol-1-yl)cyclopentane-1-carboxamide]	< 100			
[2H]C([2H])([2H])C(C(=O)Nc1ccc(C#N)cc1C1CC1)(n1cc(C#CC2CN(c3ccc4c(c3)C(=O)N(C3CCC(=O)NC3=O)C4=O)C2)cn1)C([2H])([2H])[2H] (stereo not drawn) [Compound 186, N-(4-cyano-2-cyclopropylphenyl)-2-(4-((1-(2-(2,6-dioxopiperidin-3-yl)-1,3-dioxoisoindolin-S-yl)azetidin-3-yl)ethynyl)-1H-pyrazol-1-yl)-2,2-(dimethyl-d6) acetamide]	< 100			
CC(C)(C(=O)Nc1ccc(C#N)cc1-n1cccn1)n1cc(C#CC2CN(c3ccc4c(c3)C(=O)N(C3CCC(=O)NC3=O)C4=O)C2)cn1 (stereo not drawn) [Compound 172, N-(4-cyano-2-(1H-pyrazol-1-yl)phenyl)-2-(4-((1-(2-(2,6-dioxopiperidin-3-yl)-1,3-dioxoisoindolin-5-yl)azetidin-3-yl)ethynyl)-1H-pyrazol-1-yl)-2-methylpropanamide]	< 50			
CC(C)(C(=O)Nc1ccc(C#N)c2c1C1CCC2C1)n1cc(C#CC2CN(c3ccc4c(c3)C(=O)N(C3CCC(=O)NC3=O)C4=O)C2)cn1 (stereo not drawn) [Compound 165, N-(8-cyano-1,2,3,4-tetrahydro-1,4-methanonaphthalen-5-yl)-2-(4-((1-(2-(2,6-dioxopiperidin-3-yl)-1,3-dioxoisoindolin-5-yl)azetidin-3-yl)ethynyl)-1H-pyrazol-1-yl)-2-methylpropanamide]	< 100			
[2H]C([2H])([2H])C(C(=O)Nc1ccc(C(F)(F)F)cc1C1CC1)(n1cc(C#CC2CN(c3ccc4c(c3)C(=O)N(C3CCC(=O)NC3=O)C4=O)C2)cn1)C([2H])([2H])[2H] (stereo not drawn) [Compound 187, N-(2-cyclopropyl-4-(trifluoromethyl)phenyl)-2-(4-((1-(2-(2,6-dioxopiperidin-3-yl)-1,3-dioxoisoindolin-5-yl)azetidin-3-yl)ethynyl)-1H-pyrazol-1-yl)-2,2-(dimethyl-d6) acetamide]	< 100			
CC(C(=O)Nc1ccc(C#N)c(C(F)(F)F)c1)n1cc(C#CC2CN(c3ccc4c(c3)C(=O)N(C3CCC(=O)NC3=O)C4=O)C2)cn1 (stereo not drawn) [Compound 77, N-(4-cyano-3-(trifluoromethyl)phenyl)-2-(4-((1-(2-(2,6-dioxopiperidin-3-yl)-1,3-dioxoisoindolin-5-yl)azetidin-3-yl)ethynyl)-1H-pyrazol-1-yl) propanamide]	< 50			
CC(C)(C(=O)Nc1ccc(C(F)(F)F)cc1-n1cncn1)n1cc(C#CC2CN(c3ccc4c(c3)C(=O)N(C3CCC(=O)NC3=O)C4=O)C2)cn1 (stereo not drawn) [Compound 117, N-(2-(1H-1,2,4-triazol-1-yl)-4-(trifluoromethyl)phenyl)-2-(4-((1-(2-(2,6-dioxopiperidin-3-yl)-1,3-dioxoisoindolin-5-yl)azetidin-3-yl)ethynyl)-1H-pyrazol-1-yl)-2-methylpropanamide]				< 1000
CC(C)(C(=O)Nc1ccc(C#N)cc1F)n1cc(C#CC2CN(c3ccc4c(c3)C(=O)N(C3CCC(=O)NC3=O)C4=O)C2)cn1 (stereo not drawn) [Compound 27, N-(4-cyano-2-fluorophenyl)-2-(4-((1-(2-(2,6-dioxopiperidin-3-yl)-1,3-dioxoisoindolin-5-yl)azetidin-3-yl)ethynyl)-1H-pyrazol-1-yl)-2-methylpropanamide]				< 1000
C#Cc1cc(C#N)ccc1NC(=O)C(C)(C)n1cc(C#CC2CN(c3ccc4c(c3)C(=O)N(C3CCC(=O)NC3=O)C4=O)C2)cn1 (stereo not drawn) [Compound 189, N-(4-cyano-2-ethynylphenyl)-2-(4-((1-(2-(2,6-dioxopiperidin-3-yl)-1,3-dioxoisoindolin-5-yl)azetidin-3-yl)ethynyl)-1H-pyrazol-1-yl)-2-methylpropanamide]	< 100			
O=C1CCC(N2C(=O)c3ccc(N4CC(C#Cc5cn(C6(C(=O)Nc7ccc(C(F)(F)F)cc7Cl)CCC6)cn5)C4)cc3C2=O)C(=O)N1 (stereo not drawn) [Trifluoroacetate of compound 139, N-(2-chloro-4-(trifluoromethyl)phenyl)-1-(4-((1-(2-(2,6-dioxopiperidin-3-yl)-1,3-dioxoisoindolin-5-yl)azetidin-3-yl)ethynyl)-1H-imidazol-1-yl)cyclobutane-1-carboxamide]				< 1000
